Laboratory results taken from the kinase profiling compilation of Christmann-Franck et al. (2016).
Blank lines part the entries; values can stand above or below the compound they belong to.

Experiments:
Test in all cases: radiometric filter-binding kinase assay
EPHB4 (human) = EPHB4 (human) (UniProt P54760)
MAP3K5 (human) = MAP3K5 (human) (UniProt Q99683)
PAK6 (human) = PAK6 (human) (UniProt Q9NQU5)
RPS6KA5 KD1 KD2 (human) = RPS6KA5 KD1 KD2 (human) (UniProt O75582)
MAPK13 (human) = MAPK13 (human) (UniProt O15264)
EPHA4 (human) = EPHA4 (human) (UniProt P54764)
SYK (human) = SYK (human) (UniProt P43405)
CLK2 (human) = CLK2 (human) (UniProt P49760)
Chain of CLK2 (human) (P49760 whole entry, looked up): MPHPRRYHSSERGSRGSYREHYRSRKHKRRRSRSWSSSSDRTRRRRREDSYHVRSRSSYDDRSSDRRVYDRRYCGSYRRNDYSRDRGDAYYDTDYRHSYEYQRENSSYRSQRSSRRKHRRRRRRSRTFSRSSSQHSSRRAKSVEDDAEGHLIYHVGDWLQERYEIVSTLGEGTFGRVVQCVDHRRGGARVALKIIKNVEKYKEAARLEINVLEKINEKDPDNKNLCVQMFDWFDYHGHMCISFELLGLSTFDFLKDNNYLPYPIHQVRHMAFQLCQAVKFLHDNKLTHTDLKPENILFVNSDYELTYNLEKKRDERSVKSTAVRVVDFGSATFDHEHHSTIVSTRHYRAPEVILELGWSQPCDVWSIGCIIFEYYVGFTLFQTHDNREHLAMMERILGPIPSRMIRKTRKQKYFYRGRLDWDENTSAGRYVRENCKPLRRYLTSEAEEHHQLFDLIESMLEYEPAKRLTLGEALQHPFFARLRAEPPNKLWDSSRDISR

MAP3K7 TAB1 (human) = MAP3K7 TAB1 (human) (UniProt Q15750+O43318)
MARK4 (human) = MARK4 (human) (UniProt Q96L34)
MAPK1 (human) = MAPK1 (human) (UniProt P28482)
Chain of MAPK1 (human) (P28482 whole entry, looked up): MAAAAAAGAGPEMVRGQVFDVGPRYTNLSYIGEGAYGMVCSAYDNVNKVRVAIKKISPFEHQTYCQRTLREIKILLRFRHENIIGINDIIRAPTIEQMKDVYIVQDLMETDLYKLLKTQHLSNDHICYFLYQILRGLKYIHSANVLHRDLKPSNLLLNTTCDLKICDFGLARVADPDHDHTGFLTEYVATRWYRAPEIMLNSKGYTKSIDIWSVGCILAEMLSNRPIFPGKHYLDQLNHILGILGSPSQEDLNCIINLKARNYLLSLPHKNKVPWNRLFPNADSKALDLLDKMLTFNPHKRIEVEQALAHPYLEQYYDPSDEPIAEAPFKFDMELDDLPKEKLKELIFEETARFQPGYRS

CSK (human) = CSK (human) (UniProt P41240)
HIPK1 (human) = HIPK1 (human) (UniProt Q86Z02)
SRC (human) = SRC (human) (UniProt P12931)
Chain of SRC (human) (P12931 whole entry, looked up): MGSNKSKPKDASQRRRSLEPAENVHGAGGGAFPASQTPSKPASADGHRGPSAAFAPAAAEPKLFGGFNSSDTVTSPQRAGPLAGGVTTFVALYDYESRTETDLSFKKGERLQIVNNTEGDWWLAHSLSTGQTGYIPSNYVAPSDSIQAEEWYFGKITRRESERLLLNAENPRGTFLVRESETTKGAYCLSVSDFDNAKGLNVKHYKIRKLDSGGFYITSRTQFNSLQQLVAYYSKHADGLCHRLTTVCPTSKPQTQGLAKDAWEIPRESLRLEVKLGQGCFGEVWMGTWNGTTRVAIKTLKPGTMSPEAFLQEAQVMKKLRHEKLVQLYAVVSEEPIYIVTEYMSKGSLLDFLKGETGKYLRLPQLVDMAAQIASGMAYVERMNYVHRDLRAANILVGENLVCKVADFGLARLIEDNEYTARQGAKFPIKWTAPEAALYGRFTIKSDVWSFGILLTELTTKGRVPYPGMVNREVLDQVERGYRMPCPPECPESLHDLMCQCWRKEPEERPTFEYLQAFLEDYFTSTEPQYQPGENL

[1] = tested on: AKT2 (human), P31751 [S474D]
MAP3K1 (human) = MAP3K1 (human) (UniProt Q13233)
IGF1R (human) = IGF1R (human) (UniProt P08069)
PAK7 (human) = PAK7 (human) (UniProt Q9P286)
HIPK2 (human) = HIPK2 (human) (UniProt Q9H2X6)
EPHB1 (human) = EPHB1 (human) (UniProt P54762)
PRKAA1 or PRKAA2 (rat) = conditions: accession and sequence are those of the human protein
DAPK1 (human) = DAPK1 (human) (UniProt P53355)
HIPK3 (human) = HIPK3 (human) (UniProt Q9H422)
ROCK2 (rat) = conditions: accession and sequence are those of the human protein
PLK1 (human) = PLK1 (human) (UniProt P53350)
YES1 (human) = YES1 (human) (UniProt P07947)
MAP3K9 (human) = MAP3K9 (human) (UniProt P80192)
Chain of MAP3K9 (human) (P80192 whole entry, looked up): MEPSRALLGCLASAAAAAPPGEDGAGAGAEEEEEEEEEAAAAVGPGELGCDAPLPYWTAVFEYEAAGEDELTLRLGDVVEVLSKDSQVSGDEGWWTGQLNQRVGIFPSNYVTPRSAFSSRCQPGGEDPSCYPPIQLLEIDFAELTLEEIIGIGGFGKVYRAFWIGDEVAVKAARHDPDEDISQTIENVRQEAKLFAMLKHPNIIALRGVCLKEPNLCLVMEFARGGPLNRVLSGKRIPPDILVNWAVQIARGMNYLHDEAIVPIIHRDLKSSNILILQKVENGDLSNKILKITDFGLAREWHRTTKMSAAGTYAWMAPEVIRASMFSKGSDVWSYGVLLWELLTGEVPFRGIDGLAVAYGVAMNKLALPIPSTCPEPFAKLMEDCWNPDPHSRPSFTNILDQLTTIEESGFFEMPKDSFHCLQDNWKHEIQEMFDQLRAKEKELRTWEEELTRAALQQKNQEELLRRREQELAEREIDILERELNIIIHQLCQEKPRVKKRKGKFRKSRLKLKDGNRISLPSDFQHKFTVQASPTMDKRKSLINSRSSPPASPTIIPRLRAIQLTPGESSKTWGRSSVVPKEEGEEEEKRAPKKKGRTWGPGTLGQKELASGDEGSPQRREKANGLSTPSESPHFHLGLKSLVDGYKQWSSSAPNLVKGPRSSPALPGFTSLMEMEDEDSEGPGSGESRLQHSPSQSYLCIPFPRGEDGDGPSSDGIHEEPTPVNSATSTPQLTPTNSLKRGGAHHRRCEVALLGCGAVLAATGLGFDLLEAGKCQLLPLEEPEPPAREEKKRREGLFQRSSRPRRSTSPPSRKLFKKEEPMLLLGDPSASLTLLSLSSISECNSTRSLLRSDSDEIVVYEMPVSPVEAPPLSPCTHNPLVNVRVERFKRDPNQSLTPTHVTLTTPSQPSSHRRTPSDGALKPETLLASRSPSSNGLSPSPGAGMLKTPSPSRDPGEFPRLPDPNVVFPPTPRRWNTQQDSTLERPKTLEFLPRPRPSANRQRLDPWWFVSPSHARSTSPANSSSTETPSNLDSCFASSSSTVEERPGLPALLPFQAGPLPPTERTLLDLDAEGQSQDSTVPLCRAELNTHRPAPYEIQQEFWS

CAMKK2 (human) = CAMKK2 (human) (UniProt Q96RR4)
INSR (human) = INSR (human) (UniProt P06213)
BRSK2 (human) = BRSK2 (human) (UniProt Q8IWQ3)
Chain of BRSK2 (human) (Q8IWQ3 whole entry, looked up): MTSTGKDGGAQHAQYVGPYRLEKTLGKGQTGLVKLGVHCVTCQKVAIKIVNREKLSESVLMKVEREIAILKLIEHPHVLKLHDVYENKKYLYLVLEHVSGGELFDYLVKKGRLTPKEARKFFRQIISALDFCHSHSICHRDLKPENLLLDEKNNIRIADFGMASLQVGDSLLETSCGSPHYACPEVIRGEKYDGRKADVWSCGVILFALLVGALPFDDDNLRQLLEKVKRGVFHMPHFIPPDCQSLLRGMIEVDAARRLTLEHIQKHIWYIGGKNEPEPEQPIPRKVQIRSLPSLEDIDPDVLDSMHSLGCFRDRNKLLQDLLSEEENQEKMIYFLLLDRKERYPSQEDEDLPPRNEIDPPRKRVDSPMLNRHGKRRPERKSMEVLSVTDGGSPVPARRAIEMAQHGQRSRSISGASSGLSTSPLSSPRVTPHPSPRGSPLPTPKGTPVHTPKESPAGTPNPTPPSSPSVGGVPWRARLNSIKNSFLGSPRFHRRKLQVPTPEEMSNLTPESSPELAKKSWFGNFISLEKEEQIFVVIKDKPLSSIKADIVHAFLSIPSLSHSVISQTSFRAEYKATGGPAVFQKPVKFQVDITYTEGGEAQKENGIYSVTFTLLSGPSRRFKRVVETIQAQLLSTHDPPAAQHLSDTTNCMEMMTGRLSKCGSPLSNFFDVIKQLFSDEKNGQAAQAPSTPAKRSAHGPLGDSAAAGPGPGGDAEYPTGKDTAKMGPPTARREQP

PRKCZ (human) = PRKCZ (human) (UniProt Q05513)
LCK (mouse) = conditions: accession and sequence are those of the human protein
GSK3B (human) = GSK3B (human) (UniProt P49841)
EPHB3 (human) = EPHB3 (human) (UniProt P54753)
MAPK11 (human) = MAPK11 (human) (UniProt Q15759)
PKN2 (human) = PKN2 (human) (UniProt Q16513)
Chain of PKN2 (human) (Q16513 whole entry, looked up): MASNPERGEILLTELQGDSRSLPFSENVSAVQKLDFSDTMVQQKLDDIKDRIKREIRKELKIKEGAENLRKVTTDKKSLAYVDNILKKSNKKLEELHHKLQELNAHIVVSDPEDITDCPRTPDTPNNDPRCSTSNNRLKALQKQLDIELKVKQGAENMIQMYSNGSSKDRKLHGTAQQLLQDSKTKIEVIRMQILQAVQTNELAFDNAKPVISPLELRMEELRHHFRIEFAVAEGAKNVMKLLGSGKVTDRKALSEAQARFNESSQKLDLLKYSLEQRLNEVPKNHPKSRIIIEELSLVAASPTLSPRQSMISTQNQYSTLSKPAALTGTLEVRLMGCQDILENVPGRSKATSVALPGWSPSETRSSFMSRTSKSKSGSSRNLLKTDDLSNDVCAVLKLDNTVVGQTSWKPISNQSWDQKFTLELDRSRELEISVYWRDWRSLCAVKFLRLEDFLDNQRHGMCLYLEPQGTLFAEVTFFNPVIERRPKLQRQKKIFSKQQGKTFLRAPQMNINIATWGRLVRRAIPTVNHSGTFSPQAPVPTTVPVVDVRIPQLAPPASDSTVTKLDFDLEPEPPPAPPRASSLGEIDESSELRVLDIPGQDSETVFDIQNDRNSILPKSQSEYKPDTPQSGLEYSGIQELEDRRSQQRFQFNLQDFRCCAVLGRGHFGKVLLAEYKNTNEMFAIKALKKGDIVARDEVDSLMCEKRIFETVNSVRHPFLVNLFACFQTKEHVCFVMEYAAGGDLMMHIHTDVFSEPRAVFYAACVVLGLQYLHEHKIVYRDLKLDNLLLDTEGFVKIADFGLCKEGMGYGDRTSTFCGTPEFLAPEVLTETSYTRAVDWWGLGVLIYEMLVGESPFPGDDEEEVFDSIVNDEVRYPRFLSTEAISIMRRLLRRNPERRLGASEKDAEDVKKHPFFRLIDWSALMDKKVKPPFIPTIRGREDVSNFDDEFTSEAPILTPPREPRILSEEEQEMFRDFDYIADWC

Chain of RPS6KA5 KD1 KD2 (human) (O75582 whole entry, looked up): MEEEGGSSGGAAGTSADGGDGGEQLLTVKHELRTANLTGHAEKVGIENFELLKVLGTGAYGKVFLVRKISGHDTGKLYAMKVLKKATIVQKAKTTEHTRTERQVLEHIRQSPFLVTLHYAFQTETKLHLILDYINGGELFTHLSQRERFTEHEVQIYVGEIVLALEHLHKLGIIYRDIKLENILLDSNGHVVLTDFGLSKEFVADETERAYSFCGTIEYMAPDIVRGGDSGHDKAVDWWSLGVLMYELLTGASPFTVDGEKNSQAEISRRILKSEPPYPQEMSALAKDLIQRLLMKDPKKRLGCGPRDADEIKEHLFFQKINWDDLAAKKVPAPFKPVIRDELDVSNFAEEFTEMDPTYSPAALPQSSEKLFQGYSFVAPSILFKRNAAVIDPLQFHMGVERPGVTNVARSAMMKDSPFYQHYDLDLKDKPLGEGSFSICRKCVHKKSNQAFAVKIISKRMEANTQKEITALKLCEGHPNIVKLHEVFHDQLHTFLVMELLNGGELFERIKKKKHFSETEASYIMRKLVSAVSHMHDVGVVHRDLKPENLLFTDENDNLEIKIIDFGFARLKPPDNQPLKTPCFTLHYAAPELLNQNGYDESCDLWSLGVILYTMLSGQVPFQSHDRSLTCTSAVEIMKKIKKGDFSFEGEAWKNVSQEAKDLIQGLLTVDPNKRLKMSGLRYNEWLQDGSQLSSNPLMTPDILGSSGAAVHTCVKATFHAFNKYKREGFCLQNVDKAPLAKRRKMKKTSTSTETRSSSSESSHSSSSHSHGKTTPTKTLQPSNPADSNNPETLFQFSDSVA

residual activity (EPHB4 (human); compound 0.1 µM): 105%
residual activity (EPHB4 (human); compound 1.0 µM): 109%
residual activity (MAP3K5 (human); compound 0.1 µM): 96%
residual activity (MAP3K5 (human); compound 1.0 µM): 100%
residual activity (PAK6 (human); compound 0.1 µM): 87%
residual activity (PAK6 (human); compound 1.0 µM): 103%
residual activity (RPS6KA5 KD1 KD2 (human); compound 0.1 µM): 88%
residual activity (RPS6KA5 KD1 KD2 (human); compound 1.0 µM): 91%
residual activity (MAPK13 (human); compound 0.1 µM): 106%
residual activity (MAPK13 (human); compound 1.0 µM): 100%
residual activity (EPHA4 (human); compound 0.1 µM): 92%
residual activity (EPHA4 (human); compound 1.0 µM): 105%
residual activity (SYK (human); compound 0.1 µM): 89%
residual activity (SYK (human); compound 1.0 µM): 72%
residual activity (CLK2 (human); compound 0.1 µM): 49%
residual activity (CLK2 (human); compound 1.0 µM): 18%
residual activity (MAP3K7 TAB1 (human); compound 0.1 µM): 67%
residual activity (MAP3K7 TAB1 (human); compound 1.0 µM): 39%
residual activity (MARK4 (human); compound 0.1 µM): 85%
residual activity (MARK4 (human); compound 1.0 µM): 83%
residual activity (MAPK1 (human); compound 0.1 µM): 99%
residual activity (MAPK1 (human); compound 1.0 µM): 114%
residual activity (CSK (human); compound 1.0 µM): 103%
residual activity (HIPK1 (human); compound 0.1 µM): 86%
residual activity (HIPK1 (human); compound 1.0 µM): 78%
residual activity (SRC (human); compound 0.1 µM): 93%
residual activity (SRC (human); compound 1.0 µM): 72%
residual activity ([1]; compound 0.1 µM): 93%
residual activity ([1]; compound 1.0 µM): 106%
residual activity (MAP3K1 (human); compound 0.1 µM): 85%
residual activity (MAP3K1 (human); compound 1.0 µM): 100%
residual activity (IGF1R (human); compound 1.0 µM): 102%
residual activity (PAK7 (human); compound 0.1 µM): 89%
residual activity (PAK7 (human); compound 1.0 µM): 91%
residual activity (HIPK2 (human); compound 0.1 µM): 85%
residual activity (HIPK2 (human); compound 1.0 µM): 46%
residual activity (EPHB1 (human); compound 0.1 µM): 93%
residual activity (EPHB1 (human); compound 1.0 µM): 86%
residual activity (PRKAA1 or PRKAA2 (rat); compound 0.1 µM): 92%
residual activity (PRKAA1 or PRKAA2 (rat); compound 1.0 µM): 87%
residual activity (DAPK1 (human); compound 0.1 µM): 90%
residual activity (DAPK1 (human); compound 1.0 µM): 83%
residual activity (HIPK3 (human); compound 0.1 µM): 113%
residual activity (ROCK2 (rat); compound 0.1 µM): 89%
residual activity (ROCK2 (rat); compound 1.0 µM): 71%
residual activity (PLK1 (human); compound 0.1 µM): 91%
residual activity (PLK1 (human); compound 1.0 µM): 106%
residual activity (YES1 (human); compound 0.1 µM): 80%
residual activity (YES1 (human); compound 1.0 µM): 58%
residual activity (MAP3K9 (human); compound 0.1 µM): 72%
residual activity (MAP3K9 (human); compound 1.0 µM): 39%
residual activity (CAMKK2 (human); compound 0.1 µM): 87%
residual activity (CAMKK2 (human); compound 1.0 µM): 35%
residual activity (INSR (human); compound 0.1 µM): 81%
residual activity (BRSK2 (human); compound 0.1 µM): 82%
residual activity (BRSK2 (human); compound 1.0 µM): 76%
residual activity (PRKCZ (human); compound 0.1 µM): 112%
residual activity (PRKCZ (human); compound 1.0 µM): 103%
residual activity (LCK (mouse); compound 0.1 µM): 95%
residual activity (LCK (mouse); compound 1.0 µM): 101%
residual activity (GSK3B (human); compound 0.1 µM): 88%
residual activity (GSK3B (human); compound 1.0 µM): 56%
residual activity (EPHB3 (human); compound 0.1 µM): 101%
residual activity (MAPK11 (human); compound 0.1 µM): 96%
residual activity (MAPK11 (human); compound 1.0 µM): 82%
residual activity (PKN2 (human); compound 0.1 µM): 99%
residual activity (PKN2 (human); compound 1.0 µM): 92%
Compound: CN(C)C/C=C/C(=O)Nc1cccc(C(=O)Nc2ccc(Nc3nccc(-c4cccnc4)n3)cc2)c1

residual activity (EPHB4 (human); compound 1.0 µM): 94%
residual activity (EPHB4 (human); compound 10.0 µM): 94%
residual activity (MAP3K5 (human); compound 1.0 µM): 66%
residual activity (MAP3K5 (human); compound 10.0 µM): 13%
residual activity (PAK6 (human); compound 1.0 µM): 94%
residual activity (PAK6 (human); compound 10.0 µM): 94%
residual activity (RPS6KA5 KD1 KD2 (human); compound 1.0 µM): 85%
residual activity (RPS6KA5 KD1 KD2 (human); compound 10.0 µM): 65%
residual activity (MAPK13 (human); compound 1.0 µM): 97%
residual activity (EPHA4 (human); compound 1.0 µM): 86%
residual activity (EPHA4 (human); compound 10.0 µM): 98%
residual activity (SYK (human); compound 10.0 µM): 44%
residual activity (CLK2 (human); compound 1.0 µM): 36%
residual activity (CLK2 (human); compound 10.0 µM): 5%
residual activity (MAP3K7 TAB1 (human); compound 1.0 µM): 11%
residual activity (MAP3K7 TAB1 (human); compound 10.0 µM): 2%
residual activity (MARK4 (human); compound 1.0 µM): 95%
residual activity (MARK4 (human); compound 10.0 µM): 52%
residual activity (MAPK1 (human); compound 1.0 µM): 95%
residual activity (MAPK1 (human); compound 10.0 µM): 55%
residual activity (CSK (human); compound 1.0 µM): 102%
residual activity (CSK (human); compound 10.0 µM): 101%
residual activity (HIPK1 (human); compound 1.0 µM): 92%
residual activity (HIPK1 (human); compound 10.0 µM): 49%
residual activity (SRC (human); compound 1.0 µM): 107%
residual activity (SRC (human); compound 10.0 µM): 81%
residual activity ([1]; compound 1.0 µM): 99%
residual activity ([1]; compound 10.0 µM): 98%
residual activity (MAP3K1 (human); compound 1.0 µM): 90%
residual activity (MAP3K1 (human); compound 10.0 µM): 109%
residual activity (IGF1R (human); compound 1.0 µM): 35%
residual activity (IGF1R (human); compound 10.0 µM): 8%
residual activity (PAK7 (human); compound 1.0 µM): 94%
residual activity (PAK7 (human); compound 10.0 µM): 79%
residual activity (HIPK2 (human); compound 1.0 µM): 70%
residual activity (HIPK2 (human); compound 10.0 µM): 28%
residual activity (EPHB1 (human); compound 1.0 µM): 93%
residual activity (EPHB1 (human); compound 10.0 µM): 91%
residual activity (PRKAA1 or PRKAA2 (rat); compound 10.0 µM): 70%
residual activity (DAPK1 (human); compound 1.0 µM): 53%
residual activity (DAPK1 (human); compound 10.0 µM): 11%
residual activity (HIPK3 (human); compound 1.0 µM): 101%
residual activity (ROCK2 (rat); compound 1.0 µM): 95%
residual activity (ROCK2 (rat); compound 10.0 µM): 78%
residual activity (PLK1 (human); compound 1.0 µM): 78%
residual activity (PLK1 (human); compound 10.0 µM): 40%
residual activity (YES1 (human); compound 1.0 µM): 89%
residual activity (YES1 (human); compound 10.0 µM): 110%
residual activity (MAP3K9 (human); compound 1.0 µM): 39%
residual activity (MAP3K9 (human); compound 10.0 µM): 7%
residual activity (CAMKK2 (human); compound 1.0 µM): 40%
residual activity (CAMKK2 (human); compound 10.0 µM): 10%
residual activity (INSR (human); compound 1.0 µM): 50%
residual activity (INSR (human); compound 10.0 µM): 3%
residual activity (BRSK2 (human); compound 1.0 µM): 88%
residual activity (BRSK2 (human); compound 10.0 µM): 51%
residual activity (PRKCZ (human); compound 1.0 µM): 101%
residual activity (PRKCZ (human); compound 10.0 µM): 86%
residual activity (LCK (mouse); compound 10.0 µM): 102%
residual activity (GSK3B (human); compound 1.0 µM): 73%
residual activity (GSK3B (human); compound 10.0 µM): 43%
residual activity (EPHB3 (human); compound 1.0 µM): 91%
residual activity (EPHB3 (human); compound 10.0 µM): 105%
residual activity (MAPK11 (human); compound 1.0 µM): 98%
residual activity (MAPK11 (human); compound 10.0 µM): 101%
residual activity (PKN2 (human); compound 1.0 µM): 84%
residual activity (PKN2 (human); compound 10.0 µM): 82%
Compound: COc1cc(C(=O)N2CCOCC2)c(F)cc1Nc1ncc(C(F)(F)F)c(NC2CC2)n1
